Legend:
Format in all cases: cell-based, human
[1] = system: IFN-γ production by RGP-specific TCL; assay: IFN-γ detection in culture supernatants by sandwich ELISA; conditions: supernatant at 48 h, UD undetectable, limit of detection 2 pg/ml
Description: (§1) Cytokine Detection in Culture Supernatants
(§2) Supernatants of triplicate cultures were harvested and pooled from T cell proliferation assay cultures at 48 hours for the detection of IL-5 and IFN-γ production by sandwich ELISA. Briefly white Maxisorp (NUNC, Roskilde, Denmark) ELISA plates were coated with capture mAb (anti-IL-5, Pharmingen, San Diego, Calif., USA; anti-IFN-γ, Endogen, Woburn, Mass. USA) overnight at 4° C. Plates were then washed and wells blocked with 1% Bovine Serum Albumin/PBS for 1 hour at room temperature. Following washing, test samples (neat) and serial dilutions of recombinant human IL-5 (Pharmingen, USA) or IFN-γ (Endogen, USA) (for the construction of standard curves) were added and incubated overnight at 4° C. Following washing, plates were incubated with biotinylated detecting mAb (anti-IL-5, Pharmingen, USA; […], Endogen, USA) for 1 hour at room temperature. Plates were then washed and incubated with streptavidin-peroxidase (Amersham, Piscataway, N.J., USA) for 30 minutes at room temperature. Following washing, a chemiluminescent substrate (Du Pont, Wilmington, Del., USA) was added to each well and plates read in a Lumicount microplate Glow Luminometer (Packard Instrument Company, Meriden, Conn., USA), 0.5 seconds/well, automatic sensitivity setting. Standard curve construction and determination of test sample cytokine levels were performed using Packard I-smart software. The limits of detection for IL-5 and IFN-γ were 10 pg/ml and 2 pg/ml respectively.

RGP-specific TCL = assay: TCL proliferation assay (3H-thymidine incorporation, stimulation index); conditions: peptides 10 μg/ml
Description: Generation of Short-Term RGP-Specific TCL
PBMC were cultured in 24-well plates (Costar, Mass., USA) at 2.5×10^6 cells/well with RGP extract at a concentration of 25 or 50 μg/ml in RPMI 1640 medium (Gibco BRL, NY, USA) supplemented with 2 mM GlutaMAX I (Gibco BRL), 0.05 mg/ml gentamicin (David Bull Laboratories, Mulgrave, Victoria, Australia) and 5% heat-inactivated hunan AB^+ serum (Sigma, Mo., USA) for 7 days at 37° C. in a 5% CO2 humidified incubator. At day 7, cells were washed once and restimulated in 24-well plates at 5×10^5 cells/well width 25 or 50 μg/ml of RGP extract in the presence of 5×10^5 cells/well irradiated (3000 rads) autologous PBMC as a source of antigen presenting cells (APC). At day 2 following restimulation, 10 U/ml of Lymphocult T-LF (LC; Biotest, Germany) was added as a source of IL-2 and at day 4, 1 ml of culture medium was removed and replaced with fresh medium and 10 U/ml of LC. […] In all experiments T cells were rested for 6 to 7 days after the last addition of antigen and APC before testing.
T cells (5×10^4/well) were cultured in 96-well U bottom plates with either RGP extract at concentrations ranging from 25 to 200 μg/ml, purified Lol p 1 (0.12 to 2 μg/ml) or Lol p 5 (0.1 to 10 μg/ml), or Lol p 1 or Lol p 5 peptides (10 μg/ml), or medium alone (to determine background levels of proliferation), in the presence of washed autologous irradiated (3000 rads) PBMC (5×10^4/well). […] Cultures were incubated for 3 days, pulsed for the last 16 hours with ^3H-thymidine (1 μCi/well) and harvested onto glass fibre filters. ^3H-thymidine incorporation was measured by liquid scintillation spectroscopy and the mean counts per minute (cpm) for triplicate cultures was determined. Responses were considered positive if the stimulation index (SI, cpm of antigen-stimulated T cells divided by cpm of unstimulated T cells) was ≧2.5. Where several concentrations of allergen were tested (i.e., RGP, Lol p 1 and Lol p 5), values corresponding to the highest proliferation are shown.

[2] = system: IL-5 production by RGP-specific TCL; assay: IL-5 detection in culture supernatants by sandwich ELISA; conditions: supernatant at 48 h, UD undetectable, limit of detection 10 pg/ml
Description: as §1, §2

[3] = Subject 2 TCL, Lol p 5 peptides
[4] = Subject 2 TCL, Lol p 5 series (Table 4), RGP and Lol p 5 maximal response
[5] = Subject 11 TCL, Lol p 5 series (Table 4), RGP and Lol p 5 maximal response
[6] = Subject 13 TCL, Lol p 5 series (Table 4), RGP and Lol p 5 maximal response
[7] = Subject 38 TCL, Lol p 5 peptides
[8] = Subject 38 TCL, Lol p 5 series (Table 4), RGP and Lol p 5 maximal response, * SDS-PAGE purified Lol p 5
[9] = Subject 15 TCL, Lol p 1 peptides
[10] = Subject 19 TCL, Lol p 1 peptides
[11] = Subject 2 TCL, Lol p 1 series (Table 3), RGP and Lol p 1 maximal response
[12] = Subject 15 TCL, Lol p 1 series (Table 3), RGP and Lol p 1 maximal response
[13] = Subject 19 TCL, Lol p 1 series (Table 3), RGP and Lol p 1 maximal response
[14] = Subject 4 TCL, Lol p 1 series (Table 3), RGP and Lol p 1 maximal response
[15] = Subject 11 TCL, Lol p 1 series (Table 3), RGP and Lol p 1 maximal response
[16] = Subject 14 TCL, Lol p 1 series (Table 3), RGP and Lol p 1 maximal response

## AALTKAITAMTQAQKAGKPA (Lolium perenne) [Lol p 5 peptide 226-245]
[1]; [3]
  IFN-γ, proliferation inducing peptides: 292.0 pg/mL
RGP-specific TCL; [4]
  Proliferative response, stimulation index: 3.3
RGP-specific TCL; [5]
  Proliferative response, stimulation index: 3.5
RGP-specific TCL; [6]
  Proliferative response, stimulation index: 2.0
RGP-specific TCL; Subject 27 TCL, Lol p 5 series (Table 4), RGP and Lol p 5 maximal response, † affinity purified Lol p 5
  Proliferative response, stimulation index: 7.1

## ADKFKIFEAAFSESSKGLLA (Lolium perenne) [Lol p 5 peptide 55-74]
[1]; [7]
  IFN-γ, proliferation inducing peptides: 54.2 pg/mL
RGP-specific TCL; Subject 36 TCL, Lol p 5 series (Table 4), RGP and Lol p 5 maximal response
  Proliferative response, stimulation index: 3.3
RGP-specific TCL; [8]
  Proliferative response, stimulation index: 3.3
[2]; [7]
  IL-5, proliferation inducing peptides: 220.7 pg/mL

## DVNAGFKAAVAAAANAPPAD (Lolium perenne) [Lol p 5 peptide 37-56]
[1]; [3]
  IFN-γ, proliferation inducing peptides: 7.0 pg/mL
[1]; [7]
  IFN-γ, proliferation inducing peptides: 85.0 pg/mL
RGP-specific TCL; [4]
  Proliferative response, stimulation index: 4.3
RGP-specific TCL; Subject 6 TCL, Lol p 5 series (Table 4), RGP and Lol p 5 maximal response
  Proliferative response, stimulation index: 7.3
RGP-specific TCL; [5]
  Proliferative response, stimulation index: 4.5
RGP-specific TCL; [6]
  Proliferative response, stimulation index: 0.9
RGP-specific TCL; Subject 20 TCL, Lol p 5 series (Table 4), RGP and Lol p 5 maximal response
  Proliferative response, stimulation index: 4.9
RGP-specific TCL; Subject 29 TCL, Lol p 5 series (Table 4), RGP and Lol p 5 maximal response
  Proliferative response, stimulation index: 2.8
RGP-specific TCL; Subject 35 TCL, Lol p 5 series (Table 4), RGP and Lol p 5 maximal response
  Proliferative response, stimulation index: 4.1
RGP-specific TCL; [8]
  Proliferative response, stimulation index: 4.0
[2]; [3]
  IL-5, proliferation inducing peptides: 692.8 pg/mL
[2]; [7]
  IL-5, proliferation inducing peptides: 275.1 pg/mL

## GHAFGSMAKKGEEQNVRSAG (Lolium perenne) [Lol p 1 peptide 109-128]
[1]; Subject 3 TCL, Lol p 1 peptides
  IFN-γ, proliferation inducing peptides: 32.1 pg/mL
[1]; [9]
  IFN-γ, proliferation inducing peptides: 143.3 pg/mL
[1]; Subject 16 TCL, Lol p 1 peptides
  IFN-γ, proliferation inducing peptides: 13.8 pg/mL
[1]; [10]
  IFN-γ, proliferation inducing peptides: 8.0 pg/mL
RGP-specific TCL; [11]
  Proliferative response, stimulation index: 12.9
RGP-specific TCL; Subject 3 TCL, Lol p 1 series (Table 3), RGP and Lol p 1 maximal response
  Proliferative response, stimulation index: 2.8
RGP-specific TCL; [12]
  Proliferative response, stimulation index: 7.1
RGP-specific TCL; Subject 16 TCL, Lol p 1 series (Table 3), RGP and Lol p 1 maximal response
  Proliferative response, stimulation index: 3.0
RGP-specific TCL; Subject 17 TCL, Lol p 1 series (Table 3), RGP and Lol p 1 maximal response
  Proliferative response, stimulation index: 2.7
RGP-specific TCL; [13]
  Proliferative response, stimulation index: 12.0
[2]; [9]
  IL-5, proliferation inducing peptides: 160.7 pg/mL

## IAPYHFDLSGHAFGSMAKKG (Lolium perenne) [Lol p 1 peptide 100-119]
[1]; [9]
  IFN-γ, proliferation inducing peptides: 167.1 pg/mL
RGP-specific TCL; [11]
  Proliferative response, stimulation index: 9.4
RGP-specific TCL; [14]
  Proliferative response, stimulation index: 6.8
RGP-specific TCL; [15]
  Proliferative response, stimulation index: 7.9
RGP-specific TCL; [12]
  Proliferative response, stimulation index: 9.2
RGP-specific TCL; [13]
  Proliferative response, stimulation index: 3.7
[2]; [9]
  IL-5, proliferation inducing peptides: 275.6 pg/mL

## KESWGAVWRIDTPDKLTGPF (Lolium perenne) [Lol p 1 peptide 190-209]
[1]; Subject 10 TCL, Lol p 1 peptides
  IFN-γ, proliferation inducing peptides: 9.0 pg/mL
[1]; [9]
  IFN-γ, proliferation inducing peptides: 63.5 pg/mL
[1]; Subject 23 TCL, Lol p 1 peptides
  IFN-γ, proliferation inducing peptides: 8.3 pg/mL
RGP-specific TCL; [14]
  Proliferative response, stimulation index: 6.2
RGP-specific TCL; Subject 10 TCL, Lol p 1 series (Table 3), RGP and Lol p 1 maximal response
  Proliferative response, stimulation index: 3.7
RGP-specific TCL; [15]
  Proliferative response, stimulation index: 3.3
RGP-specific TCL; [16]
  Proliferative response, stimulation index: 5.7
RGP-specific TCL; Subject 18 TCL, Lol p 1 series (Table 3), RGP and Lol p 1 maximal response
  Proliferative response, stimulation index: 5.4
RGP-specific TCL; [13]
  Proliferative response, stimulation index: 3.0
RGP-specific TCL; Subject 22 TCL, Lol p 1 series (Table 3), RGP and Lol p 1 maximal response
  Proliferative response, stimulation index: 5.7
RGP-specific TCL; Subject 23 TCL, Lol p 1 series (Table 3), RGP and Lol p 1 maximal response
  Proliferative response, stimulation index: 5.2
[2]; [9]
  IL-5, proliferation inducing peptides: 15.3 pg/mL
[2]; [10]
  IL-5, proliferation inducing peptides: 14.7 pg/mL

## KPTGAGPKDNGGACGYKDVD (Lolium perenne) [Lol p 1 peptide 28-47]
[1]; [9]
  IFN-γ, proliferation inducing peptides: 23.2 pg/mL
[1]; [10]
  IFN-γ, proliferation inducing peptides: 5.2 pg/mL
RGP-specific TCL; [14]
  Proliferative response, stimulation index: 4.1
RGP-specific TCL; [15]
  Proliferative response, stimulation index: 3.5
RGP-specific TCL; [12]
  Proliferative response, stimulation index: 7.6
RGP-specific TCL; [13]
  Proliferative response, stimulation index: 3.0

## Lol p 1 peptide 1-20: synthetic 20-mer, amino acids 1-20 of Lol p 1A (SEQ ID NO:1) (IAKVPPGPNITAEYGDKWLD; Lolium perenne)
RGP-specific TCL; Subject 24 TCL, Lol p 1 series (Table 3), RGP and Lol p 1 maximal response
  Proliferative response, stimulation index: 2.6
[2]; Subject 74 TCL, Lol p 1 peptides
  IL-5, proliferation inducing peptides: 46.1 pg/mL

## Lol p 1 peptide 136-155: synthetic 20-mer, amino acids 136-155 of Lol p 1A (SEQ ID NO:1) (RRVKCKYPDGTKPTFHVEKA; Lolium perenne)
[1]; Subject 14 TCL, Lol p 1 peptides
  IFN-γ, proliferation inducing peptides: 106.4 pg/mL
RGP-specific TCL; [14]
  Proliferative response, stimulation index: 2.5
RGP-specific TCL; [16]
  Proliferative response, stimulation index: 4.4
